In data set [1] the test system is AZT antibodies. Kind of data set: Immunological activity / tracer performance in FPIA for AZT (qualitative). It is filed as binding. Conditions: qualitative. As for the experimental part:
(§1) An equal volume of precipitation reagent was added per microcentrifuge tube. The tubes were centrifuged at greater than 9,000×g for 1 minute.
(§2) (2) A 17.5 ul sample of each serum extract was brought to approximately pH 7-8 by the addition of buffer.
(§3) (4) After an appropriate incubation time, the polarization of each reaction mixture was determined using a polarization spectrofluorimeter.

Another data set deals with antibody to AZT. The experiment in a line: Nephelometric inhibition immunoassay (NIA) for AZT. In kind it is binding. The conditions noted are these: qualitative. How it is done:
Typically this conjugate is prepared from a high molecular weight carrier such as horse apoferritin or serum proteins.

Data set [2] concerns AZT antibodies. Kind of data set: Fluorescence quenching technique for assaying AZT. It is filed as binding. Conditions: qualitative. From the text: Fluorescence quenching and fluorescence enhancement immunoassays are other homogeneous fluorescent assays based on the observation that some antibodies, upon binding to a fluorescent molecule, cause either an enhancement or decrease in fluorescence.

The conditions of data set [3]: major metabolite of AZT; cited from earlier work.
Data set [4] deals with antisera to AZT, Rabbit 1 (immunized with AZT-3-V:BSA). The experiment in a line: FPIA comparison of tracers, antiserum of Rabbit 1 (Table 1). It is filed as binding. Conditions: for Polarization Units (P × 1000): 1 pmole of tracer, antiserum at the given titer; for ED50 AZT: concentration of AZT giving 50% reduction in polarization of this tracer relative to 0 tube; for Titer [Ab]: dilution of antiserum required to obtain the given polarization units with 1 pmole of tracer. How it is done: (§4) The immunogen (1 mg in 1 ml) was emulsified with an equal volume of Freund's Complete Adjuvant and injected intradermally into each of two female albino rabbits. The process was repeated in two weeks. Two weeks later, monthly subcutaneous booster injections were begun with 0.5 mg in 0.5 ml of the immunogen and 0.5 ml of Freund's Incomplete Adjuvant per animal. The rabbits were bled biweekly by a marginal ear vein technique beginning six weeks after the primary immunization. The blood collected was refrigerated, allowing clots to form, and the supernatant (antiserum) retained. The antiserum from each rabbit was collected and stored, either at -20° C. without preservative, or at 4° C. after addition of sodium azide to a final concentration of 0.1%. The same schedule was followed for each immunogen. Rabbits immunized produced antibodies to AZT.
(§5) Fluorescence Polarization Immunoassay for AZT
as §1, §2, §3
(§6) As further illustration of the invention polyclonal antibodies were raised in two rabbits by immunization with the conjugate of Example 4 (AZT-3-V:BSA) as is more fully described in Example 45 and stored at 4° C. with 0.1% sodium azide. A number of tracers were then compared as to their performance in FPIA using the antisera raised from two rabbits.
(§7) ^(1) TITER was defined as the dilution of antiserum (i.e., [Ab])
(§8) required to obtain the given polarization units (P × 1000) with 1
(§9) required to give a 50% reduction in polarization relative to a control (0
(§10) tube) containing no unlabeled AZT.

For data set [5], the system named is antisera to AZT, Rabbit 2 (immunized with AZT-3-V:BSA). Kind of data set: FPIA comparison of tracers, antiserum of Rabbit 2 (Table 1). It is filed as binding. Conditions: for Polarization Units (P × 1000): 1 pmole of tracer, antiserum at the given titer; for ED50 AZT: concentration of AZT giving 50% reduction in polarization of this tracer relative to 0 tube; for Titer [Ab]: dilution of antiserum required to obtain the given polarization units with 1 pmole of tracer. How it is done: as §4, §5, §1, §2, §3, §6, §7, §8, §9, §10

For data set [6], the system named is antibodies from Rabbit No. 1 produced in response to immunization with AZT-3-V:BSA. The experiment in a line: Fluorescence polarization immunoassay (FPIA) for AZT, standard curve. The conditions noted are these: tracer AZT-3-B:FAM Isomer I, zero standard 166. It is filed as binding. As for the experimental part: as §4, §5
The following procedure illustrates the use of various materials of the invention in a preferred FPIA method.
as §1, §2, §3

For data set [7], the system named is antibodies from Rabbit No. 2 produced in response to immunization with AZT-3-V:BSA. The experiment in a line: AZT microtiter plate enzyme immunoassay (EIA). It is filed as binding. Conditions: tracer AZT-3-V:HRPO; for Net Absorbence (B): zero standard 0.367. As for the experimental part:
as §4
To each well of a 96 well microtiter plate was added 100 ul of diluted rabbit antibodies (Example 45) to AZT-3-V:BSA prepared via active ester (Example 4) previously fractionated with ammonium sulfate. After incubation overnight, the plate was washed and 300 ul of diluted normal rabbit serum was added to each well to block any unbound sites on the plastic surface of the microtiter plate. The plate was again washed and the excess moisture removed. […] The plate was incubated for 60 minutes at room temperature. The plate was then washed and 300 ul of diluted o-phenylenediaminehydrogen peroxide substrate solution was added to each well. The color was allowed to develop for 90 minutes at room temperature in the dark. Absorbances were then measured spectrophotometrically for each well.

For data set [8] the following is noted: at high dosage levels; cited from earlier work.
The nature of a further data set: Solubility in water. In kind it is physicochemical. The conditions noted are these: UV, assuming E^M275 = 8600, read-out: concentration of saturated aqueous solution. How it is done:
A mixture of 25 mg AZT-3-AA (Example 19), 15 mg NOS and 15 mg DCC in 1 ml of THF was stirred two hours at room temperature, then a solution of 25 mg TME in 500 ul of THF/MeOH (9+1) was added and the mixture was stirred overnight at room temperature. The suspension was filtered through a PTFE membrane to remove dicyclohexylurea and chromatographed by TLC on silica gel-F 250 um using the solvent system CHCl3 /MeOH/HOAc (90+10+1). Three major UV-absorbing bands were located: TME, Rf =0.13, ninhydrin positive, Pauly positive, migrates with TME reference; NOS, Rf =0.33, ninhydrin negative, Pauly negative, migrates with NOS reference; and product, Rf =0.40, ninhydrin negative, Pauly positive. The band corresponding to the product was scraped, eluted with MeOH and rechromatographed on RPF 250 um using the solvent system MeOH/H2 O/HOAc (33+66+2) to remove a trace of NOS. In this second chromatography system, Rf =0.42 (product) and Rf =0.81 (NOS). The product was eluted with MeOH/THF (1+1). A saturated aqueous solution was prepared and filtered through a PTFE membrane and stored at -20° C. The saturated aqueous solution was characterized by a UV wavelength scan and concentration of the solute was calculated to be 47 ug/ml, assuming E^M275 =8600.

≈ marks a conversion by molar mass, not a printed value.

With `COC(=O)C(Cc1ccc(O)cc1)NC(=O)CCC(=O)OC[C@H]1O[C@@H](n2cc(C)c(=O)[nH]c2=O)C[C@@H]1N=[N+]=[N-]` (stereo partly drawn) [Example 43, 2-[(3'-azido-3'-deoxythymid-5'-yl)-succinamido]-3-(4-hydroxyphenyl)-propionic acid methyl ester], the “immunological activity in FPIA for AZT” value in the data set with AZT antibodies [1] was “immunologically active”. In addition, the “immunological activity in NIA for AZT” value in the data set on antibody to AZT is reported as “immunologically active”.

For the molecule `Cc1cn([C@H]2C[C@H](N=[N+]=[N-])[C@@H](COC(=O)CCC(=O)Nc3ccc4c(c3)C(=O)OC43c4ccc(O)cc4Oc4cc(O)ccc43)O2)c(=O)[nH]c1=O` [Example 41, 5-[(3'-azido-3'-deoxythymid-5'-yl)-succinamido]-fluorescein], the “immunoactivity by fluorescence quenching technique” value with AZT antibodies [2] is given as “Immunoactivity of the product was demonstrated”.

As to `Cc1cn([C@H]2C[C@H](N=[N+]=[N-])[C@@H](CO[C@@H]3O[C@H](C(=O)O)[C@@H](O)[C@H](O)[C@H]3O)O2)c(=O)[nH]c1=O` [AZT-5'-glucuronide], the pharmacological activity entry in [3] is “believed to be pharmacologically inactive”.

As to `Cc1cn([C@H]2C[C@H](N=[N+]=[N-])[C@@H](CO)O2)c(=O)n(CCCC(=O)Nc2ccc3c(c2)C(=O)OC32c3ccc(O)cc3Oc3cc(O)ccc32)c1=O` [Example 13, 5-[4-(3'-azido-3'-deoxythymid-3-yl)-butyramido]-fluorescein], in data set [4], the “Polarization Units (P × 1000)” value is on record as 170 P × 1000, the “ED50 AZT” value was determined as 1.3 µg/mL (≈ 1.9 µM) and the “Titer [Ab]” value stood at 450. Further, in data set [5], the “Polarization Units (P × 1000)” value is on record as 179 P × 1000, the “ED50 AZT” value was determined as 3.9 µg/mL (≈ 5.71 µM) and the “Titer [Ab]” value amounted to 115. Besides, in the data set with AZT antibodies [1], the “affinity and sensitivity as tracer” value is “satisfactory affinity and sensitivity”.

Consider `Cc1cn([C@H]2C[C@H](N=[N+]=[N-])[C@@H](CO)O2)c(=O)n(CCCCC(=O)Nc2ccc3c(c2)C(=O)OC32c3ccc(O)cc3Oc3cc(O)ccc32)c1=O` [Example 6], for which, in data set [4], the “Polarization Units (P × 1000)” value was 179 P × 1000, the “ED50 AZT” value is 4.0 µg/mL (≈ 5.74 µM) and the “Titer [Ab]” value amounted to 300. In addition, in [5], the “Polarization Units (P × 1000)” value was 175 P × 1000, the “ED50 AZT” value worked out at 8.0 µg/mL (≈ 11.5 µM) and the “Titer [Ab]” value worked out at 130. Moreover, in the data set with AZT antibodies [1], the “immunological activity in FPIA for AZT” value is “immunologically active”.

Take `Cc1cn([C@H]2C[C@H](N=[N+]=[N-])[C@@H](CO)O2)c(=O)n(CCNC(=S)Nc2ccc3c(c2)C(=O)OC32c3ccc(O)cc3Oc3cc(O)ccc32)c1=O` [Example 29, 5-[2-(3'-azido-3'-deoxythymid-3-yl)-ethyl-thiocarbamyl]fluorescein]: in data set [4], the “Polarization Units (P × 1000)” value was 180 P × 1000, the “ED50 AZT” value turned out to be 3.9 µg/mL (≈ 5.57 µM) and the “Titer [Ab]” value was found to be 150. In data set [5], the “Polarization Units (P × 1000)” value is on record as 177 P × 1000, the “ED50 AZT” value is 2.9 µg/mL (≈ 4.14 µM) and the “Titer [Ab]” value is listed as 58. Besides, in the data set on AZT antibodies [1], the “performance as tracer for determination of AZT by FPIA” value is on record as “satisfactory tracer”.

Regarding `COc1nc(NCCCn2c(=O)c(C)cn([C@H]3C[C@H](N=[N+]=[N-])[C@@H](CO)O3)c2=O)nc(Nc2ccc3c(c2)C(=O)OC32c3ccc(O)cc3Oc3cc(O)ccc32)n1` [Example 32, 3-[3-[4-(fluoresceinyl-5)-6-methoxy-s-triazin-2-yl]-aminopropyl]-3'-azido-3'-deoxythymidine], in [4], the “Polarization Units (P × 1000)” value came to 179 P × 1000, the “ED50 AZT” value was determined as 3.1 µg/mL (≈ 3.98 µM) and the “Titer [Ab]” value is reported as 550. In addition, in [5], the “Polarization Units (P × 1000)” value is 170 P × 1000, the “ED50 AZT” value is given as ~ 8.0 ug/ml and the “Titer [Ab]” value is listed as 183. The “performance as tracer for determination of AZT by FPIA” value in the data set on AZT antibodies [1] is listed as “satisfactory tracer”.

`Cc1cn([C@H]2C[C@H](N=[N+]=[N-])[C@@H](CO)O2)c(=O)[nH]c1=O` (single isomer, unassigned) [AZT, 3'-azido-3'-deoxythymidine]: the “Polarization Units (P × 1000)” value in data set [6] (AZT 0.2 uM) came out at 155 P × 1000; in [6] (AZT 0.6 uM) it was 141 P × 1000; in [6] (AZT 1.7 uM), 118 P × 1000; in data set [6] (AZT 5.0 uM) it was 87 P × 1000; in [6] (AZT 14.7 uM), 61 P × 1000. Besides, the “% B/Bo” value is 88% in data set [7] (AZT 0.1 ng/ml); 74% in [7] (AZT 0.4 ng/ml); 56% in [7] (AZT 1.6 ng/ml); 41% in data set [7] (AZT 6.3 ng/ml); 23% in data set [7] (AZT 25.3 ng/ml); 12% in [7] (AZT 101.1 ng/ml). In addition, the “Net Absorbence (B)” value is given as 0.323 in data set [7] (AZT 0.1 ng/ml); 0.273 in data set [7] (AZT 0.4 ng/ml); 0.205 in data set [7] (AZT 1.6 ng/ml); 0.149 in [7] (AZT 6.3 ng/ml); 0.085 in [7] (AZT 25.3 ng/ml); 0.044 in [7] (AZT 101.1 ng/ml). Further, the “immunological activity in FPIA for AZT” value with AZT antibodies [1] is given as “immunologically active”. The side effects result in [8] was “serious side effects at high dosage levels”.

Take `COC(=O)C(Cc1ccc(O)cc1)NC(=O)Cn1c(=O)c(C)cn([C@H]2C[C@H](N=[N+]=[N-])[C@@H](CO)O2)c1=O` (stereo partly drawn) [Example 24, 2-[2-(3'-azido-3'-deoxythymid-3-yl)-acetamido]-3-(4-hydroxyphenyl)-propionic acid methyl ester]: the “immunological activity in FPIA for AZT” value in the data set with AZT antibodies [1] is recorded as “immunologically active”. Also, the “immunological activity in NIA for AZT” value in the data set on antibody to AZT is recorded as “immunologically active”. In addition, the solubility in “Solubility in water” worked out at 47 µg/mL (≈ 93.5 µM).

The values above are taken from patent publication US5380825A (Sigma Chemical Company, priority 1991, dated 1995).
